Data on 35 molecules can be found in patent US7425557B2, “Inhibitors of glycogen synthase kinase 3” (Novartis Vaccines and Diagnostics, Inc., priority 1998, dated 2008).

In the assay the target is human GSK3β (Homo sapiens, UniProt P49841). In words: Screening for GSK3 inhibitory activity using a cell-free assay. It counts as biochemical. To be noted: read-out: IC50 with respect to GSK3. The essentials:
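Compounds in DMSO were tested against human GSK3β over a three-hour kinase reaction. Radiolabeled phosphate transferred to the peptide was captured on streptavidin plates after EDTA/ATP stop and quantified by scintillation counting. Signal was plotted versus compound concentration.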

One may read the IC50 as the midpoint of a concentration-inhibition curve.

Sequence of human GSK3β (P49841 whole entry): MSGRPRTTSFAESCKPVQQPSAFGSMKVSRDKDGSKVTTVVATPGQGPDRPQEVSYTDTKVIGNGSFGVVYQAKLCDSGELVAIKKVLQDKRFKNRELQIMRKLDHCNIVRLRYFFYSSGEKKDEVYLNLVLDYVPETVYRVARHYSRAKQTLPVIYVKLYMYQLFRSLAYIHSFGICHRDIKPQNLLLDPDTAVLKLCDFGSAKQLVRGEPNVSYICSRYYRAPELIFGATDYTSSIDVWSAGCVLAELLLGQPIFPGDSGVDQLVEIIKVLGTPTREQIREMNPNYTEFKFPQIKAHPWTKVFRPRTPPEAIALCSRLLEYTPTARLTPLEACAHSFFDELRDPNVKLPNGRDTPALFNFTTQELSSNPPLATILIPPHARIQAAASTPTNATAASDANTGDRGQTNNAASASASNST

`CN1CCN(c2cnc(NCCNc3ccc(C#N)cn3)nc2-c2ccc(Cl)cc2Cl)C(=O)C1` [6-[(2-{[4-(2,4-dichlorophenyl)-5-(4-methyl-2-oxo-1-piperazinyl)-2-pyrimidinyl]amino}ethyl)amino]-nicotinonitrile]: the IC50 is at most 10000 nM.

On to `N#Cc1ccc(NCCNc2ncc(-c3ncc[nH]3)c(-c3ccc(Cl)cc3Cl)n2)nc1` [6-[(2-{[4-(2,4-dichlorophenyl)-5-imidazol-2-ylpyrimidin-2-yl]amino}ethyl)amino]pyridine-3-carbonitrile], for which the IC50 is at most 1000 nM.

Consider `N#Cc1ccc(NCCNCc2ncc(-c3ncc[nH]3)c(-c3ccc(Cl)cc3Cl)n2)nc1` [6-[(2-{[4-(2,4-dichlorophenyl)-5-imidazol-2-ylpyrimidin-2-yl]methylamino}ethyl)amino]pyridine-3-carbonitrile], for which the IC50 is at most 1000 nM.

`N#Cc1ccc(NCCNc2ncc(-c3ncc[nH]3)c(-c3ccc(F)cc3Cl)n2)nc1` [6-[(2-{[4-(2-chloro-4-fluorophenyl)-5-imidazol-2-ylpyrimidin-2-yl]amino}ethyl)amino]pyridine-3-carbonitrile]: the IC50 is at most 1000 nM.

Turning to `Cc1c[nH]c(-c2cnc(NCCNc3ccc(C#N)cn3)nc2-c2ccc(Br)cc2Cl)n1` [6-[(2-{[4-(4-bromo-2-chlorophenyl)-5-(4-methylimidazol-2-yl)pyrimidin-2-yl]amino}ethyl)amino]pyridine-3-carbonitrile], the IC50 was at most 1000 nM.

With `N#Cc1ccc(NCCNc2ncc(-c3ncc[nH]3)c(-c3ccc(Br)cc3Cl)n2)nc1` [6-[(2-{[4-(4-bromo-2-chlorophenyl)-5-imidazol-2-ylpyrimidin-2-yl]amino}ethyl)amino]pyridine-3-carbonitrile], the half-inhibitory concentration (IC50) was at most 1000 nM.

For the molecule `CCOC(=O)c1cnc(NCCNc2ccc(C(=O)O)cn2)nc1-c1ccc(C#N)cc1` [6-[(2-{[4-(4-cyanophenyl)-5-(ethoxycarbonyl)pyrimidin-2-yl]amino}ethyl)amino]pyridine-3-carboxylic acid], the IC50 is at most 10000 nM.

In the case of `CN1CCN(c2ccc(NCCNc3ccc(C#N)cn3)nc2-c2ccc(Cl)cc2Cl)C(=O)C1` [6-[(2-{[6-(2,4-dichlorophenyl)-5-(4-methyl-2-oxo-1-piperazinyl)-2-pyridinyl]amino}ethyl)amino]nicotinonitrile], the IC50 is at most 10000 nM.

For `Cc1cn(-c2ccc(NCCNc3ccc(C#N)cn3)nc2-c2ccc(Cl)cc2Cl)cn1` [6-[(2-{[6-(2,4-dichlorophenyl)-5-(4-methylimidazolyl)-2-pyridyl]-amino}ethyl)amino]pyridine-3-carbonitrile], the IC50 is at most 1000 nM.

As to `N#Cc1ccc(NCCNc2ccc(-n3ccnc3)c(-c3ccc(Cl)cc3Cl)n2)nc1` [6-[(2-{[6-(2,4-dichlorophenyl)-5-imidazolyl-2-pyridyl]amino}ethyl)amino]pyridine-3-carbonitrile], the half-inhibitory concentration (IC50) was at most 1000 nM.

`CCc1ccc(-c2nc(NCCNc3ccc(C#N)cn3)ccc2N2CCN(C)CC2=O)cc1` [6-[(2-{[6-(4-ethylphenyl)-5-(4-methyl-2-oxo-1-piperazinyl)-2-pyridinyl]amino}ethyl)amino]nicotinonitrile]: the IC50 is at most 10000 nM.

Regarding `Cc1nc(NCCNc2ccc([N+](=O)[O-])cn2)nc(-c2ccccc2)c1C(=O)O` [6-methyl-2-({2-[(5-nitro(2-pyridyl))amino]ethyl}amino)-4-phenylpyrimidine-5-carboxylic acid], the IC50 is at most 10000 nM.

As to `N#Cc1ccc(NCCNc2ccc([N+](=O)[O-])c(NCc3ccccc3)n2)nc1` [6-{[2-({5-nitro-6-[benzylamino]-2-pyridyl}amino)ethyl]amino}pyridine-3-carbonitrile], the IC50 was at most 10000 nM.

`CN(C)CCc1noc(-c2cnc(NCCNc3ccc([N+](=O)[O-])c(N)n3)nc2-c2ccc(Cl)cc2Cl)n1` [(2-{5-[2-({2-[(6-amino-5-nitro(2-pyridyl))amino]-ethyl}amino)-4-(2,4-dichlorophenyl)pyrimidin-5-yl](1,2,4-oxadiazol-3-yl)}ethyl)-dimethylamine]: the IC50 is at most 1000 nM.

On to `c1ccc(-c2ccnc(NCCc3ccccn3)n2)cc1` [(4-phenylpyrimidin-2-yl)(2-(2-pyridyl)ethyl)amine], for which the IC50 is at most 10000 nM.

For the molecule `c1ccc(-c2ccnc(NCCNc3ccccn3)n2)cc1` [(4-phenylpyrimidin-2-yl)[2-(2-pyridylamino)ethyl]amine], the IC50 was at most 10000 nM.

Regarding `O=[N+]([O-])c1ccc(NCCNc2nccc(NCc3cccc(Br)c3)n2)nc1` [(4-{[(3-bromophenyl)methyl]amino}pyrimidin-2-yl){2-[(5-nitro(2-pyridyl))amino]ethyl}-amine], the IC50 was at most 10000 nM.

With `O=[N+]([O-])c1cnc(NCCNc2ccccn2)nc1-c1ccccc1` [(5-nitro-4-phenylpyrimidin-2-yl)[2-(2-pyridylamino)ethyl]amine], the IC50 is at most 1000 nM.

For the molecule `O=[N+]([O-])c1ccc(NCCNc2ccc([N+](=O)[O-])c(NCc3ccc(Cl)cc3Cl)n2)nc1` [(6-{[(2,4-dichlorophenyl)methyl]amino}-5-nitro(2-pyridyl)){2-[(5-nitro(2-pyridyl))amino]ethyl}amine], the IC50 is at most 10000 nM.

On to `N#Cc1ccc(-c2nc(NCCNc3ccc([N+](=O)[O-])cn3)ncc2C(=O)NC(CO)C(N)=O)cc1` (centres unmarked) [N-(1-carbamoyl-2-hydroxyethyl)[4-(4-cyanophenyl)-2-({2-[(5-nitro(2-pyridyl))-amino]ethyl}amino)pyrimidin-5-yl]carboxamide], for which the IC50 is at most 1000 nM.

For `NC(=O)C(Cc1ccccc1)NC(=O)c1ccc(-c2ccnc(NCCc3ccccn3)n2)cc1` (centres unmarked) [N-(1-carbamoyl-2-phenyl-ethyl)(4-{2-[(2-(2-pyridyl)ethyl)amino]pyrimidin-4-yl}phenyl)carboxamide], the IC50 was at most 10000 nM.

In the case of `Cc1nc(NCCNc2ccc([N+](=O)[O-])cn2)ncc1C(=O)NC(Cc1ccccc1)C(N)=O` (centres unmarked) [N-(1-carbamoyl-2-phenylethyl)[4-methyl-2-({2-[(5-nitro(2-pyridyl))amino]ethyl}amino)pyrimidin-5-yl]carboxamide], the half-inhibitory concentration (IC50) is at most 10000 nM.

With `O=C(NCC(c1ccccc1)c1ccccc1)c1ccc(-c2ccnc(NCCNc3ccc([N+](=O)[O-])cn3)n2)cc1` [N-(2,2-diphenylethyl){4-[2-({2-[(5-nitro(2-pyridyl))amino]ethyl}amino)pyrimidin-4-yl]phenyl}carboxamide], the IC50 was at most 10000 nM.

Take `N#Cc1ccc(-c2nc(NCCNc3ccc([N+](=O)[O-])cn3)ncc2C(=O)NCCN)cc1` [N-(2-aminoethyl)[4-(4-cyanophenyl)-2-({2-[(5-nitro(2-pyridyl))amino]ethyl}amino)pyrimidin-5-yl]carboxamide]: the IC50 is at most 1000 nM.

For `COCCNC(=O)c1ccc(-c2ccnc(NCCNc3ccc([N+](=O)[O-])cn3)n2)cc1` [N-(2-methoxyethyl){4-[2-({2-[(5-nitro(2-pyridyl))amino]ethyl}amino)pyrimidin-4-yl]phenyl}carboxamide], the IC50 is at most 10000 nM.

With `N#Cc1ccc(-c2nc(NCCNc3ccc([N+](=O)[O-])cn3)ncc2C(=O)NCC(N)=O)cc1` [N-(carbamoylmethyl)[4-(4-cyanophenyl)-2-({2-[(5-nitro(2-pyridyl))amino]ethyl}amino)pyrimidin-5-yl]carboxamide], the IC50 is at most 1000 nM.

Consider `N#CCNC(=O)c1cnc(NCCNc2ccc([N+](=O)[O-])cn2)nc1-c1ccc(C#N)cc1` [N-(cyanomethyl)[4-(4-cyanophenyl)-2-({2-[(5-nitro(2-pyridyl))amino]ethyl}amino)pyrimidin-5-yl]carboxamide], for which the IC50 was at most 1000 nM.

On to `CC(C)(C)NC(=O)c1cnc(NCCNc2ccc([N+](=O)[O-])cn2)nc1-c1ccc(C#N)cc1` [N-(tert-butyl)[4-(4-cyano-phenyl)-2-({2-[(5-nitro(2-pyridyl))amino]ethyl}amino)pyrimidin-5-yl]carboxamide], for which the IC50 is at most 1000 nM.

For `O=C(NCCc1ccc(Cl)cc1Cl)c1ccc(-c2ccnc(NCCNc3ccc([N+](=O)[O-])cn3)n2)cc1` [N-[2-(2,4-dichlorophenyl)ethyl]{4-[2-({2-[(5-nitro(2-pyridyl))amino]ethyl}-amino)pyrimidin-4-yl]phenyl}carboxamide], the 50% inhibitory concentration (IC50) is at most 10000 nM.

With `CN(C)CCNC(=O)c1cnc(NCCNc2ccc([N+](=O)[O-])cn2)nc1-c1ccc(C#N)cc1` [N-[2-(dimethylamino)ethyl][4-(4-cyanophenyl)-2-({2-[(5-nitro(2-pyridyl))-amino]ethyl}amino)pyrimidin-5-yl]carboxamide], the IC50 was at most 1000 nM.

In the case of `CN(C)CCN(C)C(=O)c1cnc(NCCNc2ccc([N+](=O)[O-])cn2)nc1-c1ccc(C#N)cc1` [N-[2-(dimethylamino)ethyl][4-(4-cyanophenyl)-2-({2-[(5-nitro(2-pyridyl))amino]ethyl}amino)pyrimidin-5-yl]-N-methylcarboxamide], the IC50 was at most 1000 nM.

Consider `CNCC(=O)Nc1cnc(NCCNc2ccc([N+](=O)[O-])c(N)n2)nc1-c1ccc(Cl)cc1Cl` [N-[2-({2-[(6-amino-5-nitro(2-pyridyl))amino]ethyl}amino)-4-(2,4-dichlorophenyl)pyrimidin-5-yl]-2-(methylamino)acetamide], for which the 50% inhibitory concentration (IC50) is at most 1000 nM.

In the case of `CC(=O)Nc1cnc(NCCNc2ccc([N+](=O)[O-])cn2)nc1-c1ccc(Cl)cc1Cl` [N-[4-(2,4-dichlorophenyl)-2-({2-[(5-nitro(2-pyridyl))amino]ethyl}amino)pyrimidin-5-yl]-acetamide], the half-maximal inhibitory concentration (IC50) is at most 1000 nM.

Regarding `COc1cccc(CNC(=O)c2ccc(-c3ccnc(NCCNc4ccc([N+](=O)[O-])cn4)n3)cc2)c1OC` [N-[(2,3-dimethoxyphenyl)methyl]{4-[2-({2-[(5-nitro(2-pyridyl))amino]ethyl}amino)pyrimidin-4-yl]phenyl}carboxamide], the IC50 was at most 10000 nM.

Regarding `O=C(NCc1ccc(Cl)c(Cl)c1)c1ccc(-c2ccnc(NCCNc3ccc([N+](=O)[O-])cn3)n2)cc1` [N-[(3,4-dichlorophenyl)methyl]{4-[2-({2-[(5-nitro(2-pyridyl))amino]ethyl}amino)pyrimidin-4-yl]phenyl}carboxamide], the IC50 was at most 10000 nM.
